In PMC7660650, “Chemical Starting Matter for HNF4α Ligand Discovery and Chemogenomics” (International Journal of Molecular Sciences, 2020):

What follows are molecules tested against T1, Gal4-HNF4α (human HNF4α LBD) (Homo sapiens, UniProt P41235) (assay: Hybrid Gal4-HNF4α reporter gene assay in transiently transfected HEK293T cells). Settings: Table S1, primary screening, 50 µM.
T1 construct: uniprot entry: P41235-1, residues 142-377; expressed in transfected cells; host or cells: HEK293T
T1 sequence (P41235 142-377): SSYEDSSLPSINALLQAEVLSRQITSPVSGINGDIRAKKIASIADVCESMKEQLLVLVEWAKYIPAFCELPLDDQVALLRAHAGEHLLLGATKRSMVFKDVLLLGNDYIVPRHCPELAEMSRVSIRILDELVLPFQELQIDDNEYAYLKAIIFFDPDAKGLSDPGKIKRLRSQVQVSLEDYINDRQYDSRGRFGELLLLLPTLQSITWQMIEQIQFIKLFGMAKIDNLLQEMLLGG
Type: cell-based

SMILES | HNF4a-screening_activity_(mean_of_n=2)
CC(C)(CN)c1ccccc1 [Prestw-Frag-3733, CC(C)(CN)c1ccccc1] | 1.132
O=c1[nH]cncc1-c1ccccc1 [Prestw-Frag-3734, O=c1[nH]cncc1-c1ccccc1] | 1.236
Oc1ccccc1N1CCNCC1 [Prestw-Frag-3738, Oc1ccccc1N1CCNCC1] | 0.9708
COc1ccc2c(c1)CCC(C(=O)O)C2 (stereo not shown) [Prestw-Frag-3739, COc1ccc2CC(CCc2c1)C(O)=O] | 0.6963
Cn1c(N)nc2ccccc21 [Prestw-Frag-3740, Cn1c(N)nc2ccccc12] | 1.19
OCc1ccc2c(c1)OCO2 [Prestw-Frag-3741, OCc1ccc2OCOc2c1] | 1.114
Cc1cc(=O)n(-c2ccccc2)[nH]1 [Prestw-Frag-3742, Cc1cc(=O)n([nH]1)-c1ccccc1] | 0.8727
Cc1nc(-c2ccccc2)cs1 [Prestw-Frag-3743, Cc1nc(cs1)-c1ccccc1] | 1.125
c1ccc(-n2ccnc2)cc1 [Prestw-Frag-3744, c1cn(cn1)-c1ccccc1] | 1.014
Cc1nc(-c2ccccc2F)cs1 [Prestw-Frag-3745, Cc1nc(cs1)-c1ccccc1F] | 1.103
NCCc1ccc(F)cc1F [Prestw-Frag-3746, NCCc1ccc(F)cc1F] | 1.162
NCc1cscn1 [Prestw-Frag-3747, NCc1cscn1] | 0.9617
NCCOCc1ccccc1 [Prestw-Frag-3749, NCCOCc1ccccc1] | 0.8708
c1ccc2c(c1)CCNCC2 [Prestw-Frag-3750, C1Cc2ccccc2CCN1] | 1.099
NCC1(c2ccccc2)CC1 [Prestw-Frag-3751, NCC1(CC1)c1ccccc1] | 0.9761
Cc1[nH]cnc1CO [Prestw-Frag-3752, Cc1[nH]cnc1CO] | 1.105
c1nc(C2CCNCC2)c[nH]1 [Prestw-Frag-3753, C1CC(CCN1)c1c[nH]cn1] | 0.9547
CNC(=O)c1cc(Cl)c(N)cc1OC [Prestw-Frag-3754, CNC(=O)c1cc(Cl)c(N)cc1OC] | 1.064
CC(CO)Nc1ccccc1 (stereo not shown) [Prestw-Frag-3755, CC(CO)Nc1ccccc1] | 0.8925
CC(=O)C1CCNCC1 [Prestw-Frag-3756, CC(=O)C1CCNCC1] | 0.9377
CC1CCC(=O)O1 (stereo not shown) [Prestw-Frag-3757, CC1CCC(=O)O1] | 1.285
c1ccc(-n2cccn2)cc1 [Prestw-Frag-3759, c1cnn(c1)-c1ccccc1] | 1.212
